A word on the MIC: it is the smallest concentration in the dilution series that meets the test's criterion for growth inhibition.

≈ marks a conversion by molar mass, not a printed value.

Holding throughout (test): Broth microdilution MIC, cephalosporin alone
Common to all, as to type: cell-based
For orientation: Broth dilution looks for growth in wells or tubes with falling amounts of substance.

Experiment [1] concerns E. coli expressing class A ESBLCTXM15. The following applies: Escherichia coli. An excerpt:
(§1) To determine that ability of the test compound to inhibit the growth of beta-lactamase-producing bacterial strain, traditional cell-based screening experiments were employed. Six bacterial strains producing beta-lactamases were used: Escherichia coli expressing class an extended spectrum beta-lactamases (esbl) ctxm15 and shv5 (E. coli), Klebsiella pneumoniae expressing class a carbapenem enzyme kpc2, Pseudomonas aeruginosa expressing class B VIM-2, Enterobacter cloacae expressing class C P99+, and Acinetobacter baumannii expressing class D OXA-23 were studied. […] This experiment was performed in Cation Adjusted Mueller Hinton Broth (CAMHB, BD #212322, BD Diagnostic Systems, Sparks, Md.). The bacterial strains were grown in CAMBH broth for […]. All six strains were grown in the presence of 50 μg/mL ampicillin to ensure that resistance was maintained. At the same time, the test compound was diluted into 0.1 mg/mL stock solution in DMSO. The compound was added to the microplate and diluted in a 2-fold series in CAMHB to a final concentration of 32 to 0.25 μg/mL. A cover layer containing cephalosporin CAMHB was added to the compound at a termination concentration of 8 μg/mL or […]. […] The MIC reading of the dose escalation test of the test compound indicates the concentration of the analyte sufficient to inhibit beta-lactamase activity and protect the original antibacterial activity of cephalosporins. Six plates are required for each compound and each plate is used for one bacterial strain. In addition to the dose escalation test of the test compound, the MIC of a group of cephalosporins was tested to ensure that the strain remained consistent in behavior between the test and the test. Once the test compound and cephalosporin are added, the plates may be inoculated. The inoculation was carried out according to the CLSI broth microdilution method.

The test system of experiment [2] is Enterobacter cloacae expressing class C P99+AmpC.
From the text: as §1

Experiment [3] relates to Acinetobacter baumannii expressing class D enzyme OXA-23.
From the text: as §1

In experiment [4] the test system is Klebsiella pneumoniae expressing carbapenem class A KPC2. As to conditions: antibiotic alone, K. pneumoniae KPC2, CAMHB.
From the text: as §1

For experiment [5], the system named is Escherichia coli expressing class A ESBL SHV5. As to conditions: read-out: MIC alone.
From the text: as §1

Experiment [6] deals with Pseudomonas aeruginosa expressing class B enzyme VIM-2.
From the text: as §1

In experiment [1], `CO/N=C(\C(=O)N[C@@H]1C(=O)N2C(C(=O)O)=C(COC(C)=O)CS[C@H]12)c1csc(N)n1` [cefotaxime] displayed an MIC of 1020 µg/mL (≈ 2250 µM).

In the case of `CC(C)(O/N=C(\C(=O)N[C@@H]1C(=O)N2C(C(=O)[O-])=C(C[n+]3ccccc3)CS[C@H]12)c1csc(N)n1)C(=O)O` [Ceftazidime], the MIC in experiment [2] is 256 µg/mL (≈ 468 µM); in experiment [3] it was greater than 256 µg/mL; in experiment [4], 32 µg/mL (≈ 58.5 µM); in experiment [5] it was greater than 1020 µg/mL; in experiment [6], greater than 256 µg/mL.

(Values after patent US10479805B2, “Beta-lactamase inhibitor” (priority 2016, dated 2019).)
